Source: ChEMBL document CHEMBL3885861, “Open TG-GATES”

Species on record: Rattus norvegicus
Assay: Open TG-GATES - Regimen: Single
Format: toxicity, organism-based, Sprague-Dawley
Design: regimen Single, gender Male, age 6 weeks
Conditions: in vivo, po, 60 mg/kg, route gavage, dose level Low; for APTT / Bas / Eos / Fbg / Hb / Ht / Lym / MCH / MCHC / MCV / Mono / Neu / PT / Plat / RBC / Ret / WBC: tissue Blood; for KIDNEY_L / KIDNEY_R / KIDNEY_TOTAL: tissue Kidney; for LIVER: tissue Liver; for A/G / ALP / ALT / AST / BUN / CRE / Ca / Cl / DBIL / GLC / IP / K / LDH / Na / PL / RALB / TBIL / TC / TG / TP / gamma-GTP: tissue Plasma

## C[C@](N)(Cc1ccc(O)c(O)c1)C(=O)O [METHYLDOPA]
3 h
  TERMINAL_BW: 185.6 g
  APTT: 17.5 s
  Bas: 0%
  Eos: 0.6%
  Fbg: 265.2 mg/dL
  Hb: 12.9 g/dL
  Ht: 38.4%
  Lym: 79%
  MCH: 21.9 pg
  MCHC: 33.5%
  MCV: 65.4 fL
  Mono: 3.2%
  Neu: 16.6%
  PT: 12.5 s
  Plat: 123.5 x10_4/uL
  RBC: 587 x10_4/ul
  Ret: 10.7%
  WBC: 81.1 x10_2/uL
  KIDNEY_L: 0.8 g
  KIDNEY_R: 0.8 g
  KIDNEY_TOTAL: 1.6 g
  LIVER: 7.8 g
  A/G: 0.9
  ALP: 1439.4 IU/L
  ALT: 54.2 IU/L
  AST: 80 IU/L
  BUN: 9 mg/dL
  CRE: 0.1 mg/dL
  Ca: 11.5 mg/dL
  Cl: 107.2 meq/L
  DBIL: 0.02 mg/dL
  GLC: 186 mg/dL
  IP: 10.1 mg/dL
  K: 4.4 meq/L
  LDH: 60.4 IU/L
  Na: 143.8 meq/L
  PL: 142.8 mg/dL
  RALB: 2.6 g/dL
  TBIL: 0.078 mg/dL
  TC: 82.2 mg/dL
  TG: 70.2 mg/dL
  TP: 5.5 g/dL
  gamma-GTP: 1.4 IU/L
6 h
  TERMINAL_BW: 189.2 g
  APTT: 16.7 s
  Bas: 0%
  Eos: 1%
  Fbg: 250.4 mg/dL
  Hb: 13 g/dL
  Ht: 38.6%
  Lym: 78.8%
  MCH: 21.7 pg
  MCHC: 33.6%
  MCV: 64.8 fL
  Mono: 3.2%
  Neu: 16.2%
  PT: 12.4 s
  Plat: 117 x10_4/uL
  RBC: 596.4 x10_4/ul
  Ret: 10.3%
  WBC: 64 x10_2/uL
  KIDNEY_L: 0.8 g
  KIDNEY_R: 0.8 g
  KIDNEY_TOTAL: 1.6 g
  LIVER: 7.6 g
  A/G: 0.9
  ALP: 1752.4 IU/L
  ALT: 50.2 IU/L
  AST: 82 IU/L
  BUN: 6.4 mg/dL
  CRE: 0.2 mg/dL
  Ca: 11.2 mg/dL
  Cl: 107.6 meq/L
  DBIL: 0.008 mg/dL
  GLC: 184 mg/dL
  IP: 11.4 mg/dL
  K: 4.7 meq/L
  LDH: 49.8 IU/L
  Na: 144.2 meq/L
  PL: 125.8 mg/dL
  RALB: 2.5 g/dL
  TBIL: 0.064 mg/dL
  TC: 79 mg/dL
  TG: 45.6 mg/dL
  TP: 5.4 g/dL
  gamma-GTP: 1 IU/L
9 h
  TERMINAL_BW: 187.5 g
  APTT: 17.1 s
  Bas: 0%
  Eos: 0.8%
  Fbg: 248.8 mg/dL
  Hb: 12.8 g/dL
  Ht: 37.7%
  Lym: 74.4%
  MCH: 22 pg
  MCHC: 34%
  MCV: 64.7 fL
  Mono: 2.6%
  Neu: 21.2%
  PT: 12.4 s
  Plat: 117.7 x10_4/uL
  RBC: 583 x10_4/ul
  Ret: 10%
  WBC: 65.1 x10_2/uL
  KIDNEY_L: 0.8 g
  KIDNEY_R: 0.8 g
  KIDNEY_TOTAL: 1.6 g
  LIVER: 7.1 g
  A/G: 0.9
  ALP: 1707.4 IU/L
  ALT: 47 IU/L
  AST: 75.6 IU/L
  BUN: 10.6 mg/dL
  CRE: 0.1 mg/dL
  Ca: 11 mg/dL
  Cl: 107.4 meq/L
  DBIL: 0.008 mg/dL
  GLC: 201.2 mg/dL
  IP: 10.6 mg/dL
  K: 4.5 meq/L
  LDH: 51.4 IU/L
  Na: 144.2 meq/L
  PL: 111.8 mg/dL
  RALB: 2.5 g/dL
  TBIL: 0.064 mg/dL
  TC: 71.2 mg/dL
  TG: 32.4 mg/dL
  TP: 5.2 g/dL
  gamma-GTP: 1 IU/L
24 h
  TERMINAL_BW: 194.5 g
  APTT: 18.6 s
  Bas: 0%
  Eos: 1.2%
  Fbg: 242.4 mg/dL
  Hb: 13.1 g/dL
  Ht: 38.9%
  Lym: 78.4%
  MCH: 21.4 pg
  MCHC: 33.7%
  MCV: 63.6 fL
  Mono: 2.8%
  Neu: 17.4%
  PT: 12.6 s
  Plat: 115.8 x10_4/uL
  RBC: 612.6 x10_4/ul
  Ret: 9.4%
  WBC: 81.6 x10_2/uL
  KIDNEY_L: 0.8 g
  KIDNEY_R: 0.8 g
  KIDNEY_TOTAL: 1.6 g
  LIVER: 9.2 g
  A/G: 0.9
  ALP: 1854.6 IU/L
  ALT: 52 IU/L
  AST: 81.2 IU/L
  BUN: 15.6 mg/dL
  CRE: 0.2 mg/dL
  Ca: 11.4 mg/dL
  Cl: 108 meq/L
  DBIL: 0.016 mg/dL
  GLC: 189.8 mg/dL
  IP: 8 mg/dL
  K: 4.5 meq/L
  LDH: 98.4 IU/L
  Na: 143.6 meq/L
  PL: 136.2 mg/dL
  RALB: 2.6 g/dL
  TBIL: 0.064 mg/dL
  TC: 71.4 mg/dL
  TG: 85.4 mg/dL
  TP: 5.5 g/dL
  gamma-GTP: 1 IU/L
